Experiments:
hippocampal slice = experiment: Stimulation-evoked afterdischarge activity in hippocampal slice (field recording and intrinsic optical signal); format: cell-based, rat
Procedure: Sprague-Dawley rats (male and female; 25 to 35 days old) were prepared as described in Aghajanian, A. K. and Rasmussen, K., Synapse 31:331, 1989; and Buckmaster, P. S., Strowbridge, B. W., Schwartzdroin, P. A., J. Neurophysiol. 70:1281, 1993. In most hippocampal slice experiments, simultaneous extracellular field electrode recordings were obtained from CA1 and CA3 areas. For stimulation-evoked afterdischarge (13 slices, 8 animals), the concentration of Mg^2+ in the bathing medium was reduced to 0.9 mM. A bipolar tungsten stimulating electrode was placed on the Schaffer collaterals to evoke synaptically driven field responses in CA1; stimuli consisted to 100 to 300-μs-duration pulses at an intensity of four times population-spike threshold. Afterdischarges were evoked by a 2-s train of such stimuli delivered at 60 Hz. […] In all treatments, perfusion with furosemide-containing medium was begun after a consistent level of bursting had been established.
For imaging of intrinsic optical signals, the tissue was illuminated with a beam of white light (tungsten filament light and lens system; Dedotec USA, Lodi, N.J.) directed through the microscope condenser. The light was controlled and regulated (power supply: Lambda Electronics, Melville, N.Y.) to minimize fluctuations and filtered (695 nm long-pass) so that the slice was transilluminated with long wavelengths (red). Image frames were acquired with a charge-coupled device camera (Dage-MTI) at 30 Hz and were digitized at 8 bits with a spatial resolution of 512 by 480 pixels by means of an Imaging Technology Series 151 imaging system; gains and offsets of the camera-control box and the analog-to-digital board were adjusted to optimize the sensitivity of the system. Imaging hardware was controlled by a 486-PC-compatible computer running software written by D. Hochman and developed with commercially available software tools (Microsoft's C/C++ Compiler and Imaging Technology's ITEX library). To increase signal-to-noise ratio, an averaged image was composed from 16 individual image-frames, integrated over 0.5 s and averaged together. An experimental series typically involved the continuous acquisition of a series of averaged images over a several minute time period; at least 10 of these averaged images were acquired as control images before stimulation. Pseudo-colored images were calculated by subtracting the first control image from subsequently acquired images and assigned a color lookup table to the pixel values. For these images, usually a linear low-pass filter was used to remove high-frequency noise and a linear-histogram stretch was used to map the pixel values over the dynamic range of the system. All operations on these images were linear so that quantitative information was preserved.

rat glioma [1] = conditions: female, F-344, rat, in vivo
From the text: The rat glioma model is a standard predictive model and was used to delineate dye uptake, clearance and overall parameters of optical imaging that result in the best images. The rat glioma model consistently produces reproducible tumors for imaging studies in which the tumor is resected under an operating microscope. A disadvantage of this model is the more sarcoma-like appearance of the tumor and a lesser degree of vascularity compared to human gliomas.
Briefly, the rat glioma model uses an ethylnitrosourea-induced F-344 rat tumor line developed from a clonal population of a spinal malignant astrocytoma. […] The glioma cells were maintained in Weymouth's medium supplemented with 10% fetal calf serum. Viable cells ([…]) were trypsinized from a monolayer culture and implanted stereotaxically into the right cerebral hemisphere of 30 syngeneic female rats, each weighing 140-160 g. The stereotaxic coordinates for right frontal lobe implantation were 4.5 mm anterior to the frontal zero plane, 3 mm right from the midline and 6 mm deep. The rats were anesthetized for implantation. The heads were shaved and scalps opened, and a 1 mm burr hole made at the appropriate coordinates. The cells were injected through a 27 gauge needle, the needle left in place for 30 sec post injection and the hole was covered with bone wax. The scalp was sutured and the animals observed for 3-4 hrs until they returned to normal activity and feeding. The animals were used 10-14 days after tumor implantation. In this model, animals begin to show clinical symptoms from the tumor by 16-19 days, such as decreased activity and feeding, hemiparesis and eventually succumb between 19-27 days from mass effects due to tumor expansion.
Fourteen animals underwent the complete study, including imaging before and after resection of the tumor. The animals were anesthetized with 2% isoflurane, and the femoral vein cannulated for administration of the dye. Anesthesia was maintained with a—chloralose (50 mg/kg administered ip) and urethane (160 mg/kg administered ip). The animals were placed in a stereotaxic holder. Imaging studies were then carried out before or after removal of the cranium. The tumor typically occupied the anterior one half to two thirds of the right hemisphere exposure. The compressed brain without any tumor infiltration was defined as the tumor surround to separate it from the normal hemisphere on the contralateral side.
The following imaging apparatus was employed in Examples 5 and 6. Light was from a tungsten-halogen bulb regulated by a D.C. power supply, passed through a longpass filter (690 nm), and through a right angled prism reflected through a 50 or 100 mm objective lens onto the cortical surface. […]

[2] = system: highly malignant CNS tumor (glioblastoma; astrocytoma, grade IV); experiment: Intraoperative optical imaging of dye uptake and clearance, malignant human CNS tumor; format: in vivo; conditions: iv injection; 1 minute and 10 minutes after dye injection
From the text: (§1) The procedure used in Examples 1-4 was as follows. The area of interest was evenly illuminated by a fiber optic light source with the radiation passing through a beam splitter, controlled by a D.C. regulated power supply (Lambda, Inc.) and passed through a 695 nm longpass filter. Images were acquired with a CCD camera (COHU 6500) fitted to the operating microscope with a specially modified cineadaptor. The cortex was stabilized with a glass footplate. Images were acquired at 30 Hz and digitized at 8 bits (512×480 pixels, using an Imaging Technology, Inc. Series 151 system, Woburn, Mass.). Geometrical transformations were applied to images to compensate for small amounts of patient motion (Wohlberg, Digital Imaging Warping, IEEE Computer Society: Los Alamitos, Calif., 1988). […] Raw data (i.e., no digital enhancement) were used for determining the average optical change in specified regions (average size box was 30×30 pixels or 150-250 um^2). For pseudocolor images, a linear low pass filter removed high frequency noise and linear histogram transformations were applied. Noise was defined as the standard deviation of fluctuations it! sequentially acquired control images as 0.003-0.009.
This example illustrates optical detection of a highly malignant CNS tumor (glioblastoma; astrocytoma, grade IV). […]

rat glioma [3] = conditions: in vivo
From the text: This example illustrates a series of experiments using a rat glioma model through an intact skull to investigate whether the inventive method and inventive device could function in to image tumor tissue through an intact skull and through intact skin prior to or after surgery. Far red wavelengths of emr are known to penetrate through bone and skin. Imaging of tumor tissue was attempted through the intact skull of the rat. The extent of tumor identified was not as accurate as with the cortex exposed; however, the area lying beneath the skull with tumor tissue was easily identified and localized, and continued to concentrate dye after several minutes. […] One minute after dye injection, the dye had been cleared from the normal brain and the only residual signal remained in tumor tissue and the sagital/traverse sinuses.
FIG. 5A is a gray scale image of the cranial surface of a rat. The sagital suture runs down the center of the image. Tumor cells had been injected into the left side some days earlier so that this animal had developed a glioma on t he left hemisphere of its brain. The right hemisphere was normal. Box 1 lays over the suspect region of brain tumor, and Box 2 lays over normal tissue. FIG. 5B is a difference image one second after indocyanine green dye had been intraveneously injected into the animal. The region containing tumor tissue becomes immediately visible through the intact cranium. […] The concentration of dye in the center of this difference image is dye circulating in the sagital sinus.
The optical changes were determined by the average optical change in a box placed directly over the tumor and over the normal hemisphere. The increase in absorption is a function of the concentration of dye in the tissue at a particular time. The graph labeled “extracranial tumor” is a plot of the dynamics of the absorption changes within box 1 from FIG. 5A. The graph labeled “extracranial: normal” is a plot of the dynamics of the absorption change within box 2 from FIG. 5A.
The following imaging apparatus was employed in Examples 5 and 6. […]

[4] = system: low grade CNS tumor (astrocytoma, grade 1); experiment: Intraoperative optical imaging of dye uptake and clearance, low grade human CNS tumor; format: in vivo; conditions: 1 mg/kg iv bolus
From the text: as §1
An averaged control image was obtained of the particular cortical surface area of interest. FIG. 1A is a gray-scale image of the area of interest prior to dye administration. […]

[5] = 2.5 mM, 20 minutes of perfusion

Compound	electrical afterdischarge activity (hippocampal slice; [5])	stimulation-evoked optical changes (hippocampal slice; [5])	reversibility after washout (hippocampal slice; 45 minutes of perfusion with normal bathing medium)	epileptiform activity and intrinsic optical signal during electrical stimulation (hippocampal slice; following treatment with furosemide)	duration of prolonged increase in optical signal in the tumor (rat glioma [1])	dye uptake rise time, normal (rat glioma [1])	onset of optical signal change after dye injection (rat glioma [1])	peak percentage difference change, tumor (rat glioma [1])	retention of dye in malignant tissue [2]	peak optical change, normal brain (rat glioma [3])	peak optical change, tumor (rat glioma [3])	dye clearance, normal vs tumor region (rat glioma [3]; iv)	entry of dye into low grade tumor tissue vs normal brain tissue [4]
NS(=O)(=O)c1cc(C(=O)O)c(NCc2ccco2)cc1Cl [furosemide]	blocked	blocked	restoration of the initial response pattern	blocks the epileptiform activity and the intrinsic optical signal									
CC1(C)C(/C=C/C=C/C=C/C=C2\N(CCCCS(=O)(=O)O)c3ccc4ccccc4c3C2(C)C)=[N+](CCCCS(=O)(=O)[O-])c2ccc3ccccc3c21 [indocyanine green]					> 2 min	2.4 %/sec	2 to 3 s	40.5±9.6%	retained significantly longer in malignant tissue than in benign tumor tissue	7.8±2.3%	13.1±3.9%	the normal tissue has cleared the dye, but dye is still retained in the tumor region	enters low grade tumor tissue faster than normal brain tissue

Reference: patent US6671540B1, “Methods and systems for detecting abnormal tissue using spectroscopic techniques” (priority 1990, dated 2003)
